Assay results reported in patent publication US4265904A, “Prostacyclin analogs of the 1 series and related analogs” (American Cyanamid Company, priority 1979, dated 1981).

How the values were obtained:
Assay type in all cases: in vivo, guinea pigs
[1] = tested on: bronchospasms elicited by 5-hydroxytryptamine; experiment: Bronchodilator activity against bronchospasm elicited by intravenous 5-hydroxytryptamine, Konzett procedure; conditions: Cavia porcellus; guinea pig, 5-hydroxytryptamine spasmogen, three logarithmic cumulative intravenous doses; read-out: ED50 5HT
Procedure: (§1) The compounds of this invention are useful as bronchodilators for the treatment of asthma and chronic bronchitis. Bronchodilator activity is determined in guinea pigs against bronchospasms elicited by intravenous injections of 5-hydroxytryptamine, histamine or acetylcholine by the Konzett procedure. [See J. Lulling, P. Lievens, F. El Sayed and J. Prignot, Arzneimittel-Forschung, 18, 995 (1968).]
(§2) In Table which follows bronchodilator activity for representative compounds of this invention against one or more of three spasmogenic agents is expressed as an ED50 determined from the results obtained with three logarithmic cummulative intravenous doses. In this assay, these compounds of this invention provide an effect of longer duration than does natural l-PGE1 or l-PGE2.

[2] = tested on: bronchospasms elicited by histamine; experiment: Bronchodilator activity against bronchospasm elicited by intravenous histamine, Konzett procedure; conditions: Cavia porcellus; guinea pig, histamine spasmogen, three logarithmic cumulative intravenous doses
Procedure: as §1, §2

[3] = tested on: bronchospasms elicited by acetylcholine; experiment: Bronchodilator activity against bronchospasm elicited by intravenous acetylcholine, Konzett procedure; conditions: Cavia porcellus; guinea pig, acetylcholine spasmogen, three logarithmic cumulative intravenous doses
Procedure: as §1, §2

SMILES | ED50 [1] [mg/kg] | ED50 [2] [mg/kg] | ED50 [3] [mg/kg]
CCCCC(C)(O)C/C=C/[C@@H]1[C@H]2CC(CCCCC(=O)OC)O[C@H]2C[C@H]1O (relative stereo) [dl 11α,16-Dihydroxy-6,9α-epoxy-16-methyl-13-trans-prostenoic acid methyl ester] | 0.0925 | 0.111 | 0.146
C=CC(O)(C/C=C/[C@@H]1[C@H]2CC(CCCCC(=O)CO)O[C@H]2C[C@H]1O)CCCC (relative stereo) [11a, 16-Dihydroxy-6,9a (epoxy)-1-hydroxymethyl-1-oxo-16-vinyl-13-trans-prostene] | 0.0276 | 0.00146 | 0.0032
CCCCC(C)(O)C/C=C/[C@@H]1[C@H]2CC(C(I)CCCC(=O)OC)O[C@H]2C[C@H]1O (relative stereo) [dl 11α,16-Dihydroxy-6,9α-epoxy-5-iodo-16-methyl-13-trans-prostenoic acid methyl ester] | 0.004 | 0.0069 | 0.0065
C=CC(O)(C/C=C/[C@@H]1[C@H]2CC(CCCCC(=O)OC)O[C@H]2C[C@H]1O)CCCC (relative stereo) [dl 11α,16-Dihydroxy-6,9α-epoxy-16-vinyl-13-trans-prostenoic acid methyl ester] | 0.0367 | 0.0254 | 0.0491
